{"source": "patent US10889611B2", "about": "“Sialyltransferase inhibitors and uses thereof” (Academia Sinica, priority 2015, dated 2021)", "key": {"[1]": {"test_system": "PANC-1 cells", "assay": "MTT assay cytotoxicity, PANC-1 cells", "format": "cell-based, human", "conditions": "1, 5, 10, 25 and 50 μM for 24 and 48 hours, FIG. 6", "protocol": "(§1) The absorbance of the solution at 570 nm was measured by spectrophotometer.\n(§2) The cytotoxicity of FCW551 on PANC-1 and LN cells were determined by MTT assay in according to procedures described in the “Materials and Methods” section."}, "[2]": {"test_system": "LN cells", "assay": "MTT assay cytotoxicity, LN cells", "format": "cell-based, human", "conditions": "1, 5, 10, 25 and 50 μM for 24 and 48 hours, FIG. 6", "protocol": "(§3) The LN cell line was established by orthotopically injected 5×10^5 PANC-1 cells to the pancreas of SCID mice. After one month, mestastasis was found in lymph nodes, cancerous cells were then isolated from lymph nodes. The genomic DNA of the isolated cancer cells from lymph nodes were extracted and sent for genotyping analysis, which confirmed that LN cells were indeed derived from PANC-1 cells (data not shown).\nas §1, §2"}, "[3]": {"test_system": "PANC-1 cells", "assay": "Migration and invasion analysis, PANC-1 cells", "format": "cell-based, human", "conditions": "1 and 20 μM for 24 and 48 hours, FIG. 7", "protocol": "(§4) Migration assays were done using a transwell, in which a polycarbonate filter pre-coated with Matrigel (8-μm pores, Millicell; Millipore, Billerica, Mass.) was inserted therein. Cells were serum-starved for 24 h and then seeded (5×10^5 cells per upper chamber) and treated with or without the present compound(s) (concentrations as indicated), and the assays were run for 6 h. Cells that had migrated to the underside of the inserted filter were stained with hematoxylin solution. The cells in the upper side of the inserted membrane were rubbed with a cotton swab. The migrated cells on the underside were pictured in a 200× magnification field and quantified.\n(§5) In this example, the ability of the FCW551 in suppressing the migration and/or invasion of pancreatic cancer cells was investigated. Briefly, PANC-1 and LN cells were respectively treated with 1 and 20 μM FCW551 for 24 and 48 hours before subjecting to the migration and invasion analysis. Results are illustrated in FIG. 7."}, "[4]": {"test_system": "LN cells", "assay": "Migration and invasion analysis, LN cells", "format": "cell-based, human", "conditions": "1 and 20 μM for 24 and 48 hours, FIG. 7", "text": "as §3, §4, §5"}, "[5]": {"test_system": "primary melanoma cells (B16-F10/Luc cells)", "assay": "Primary melanoma-bearing C57BL mice", "format": "in vivo", "protocol": "(§6) Six C57BL mice (3-6 weeks old) were subcutaneously or intravenously injected with 5×10^5 primary melanoma cells (i.e., B16-F10/Luc cells) on day 0 and allowed the tumor to grow for 7 days to create primary or metastatic melanoma model. Then, the test compound (e.g., FCW393, 10 mg/Kg, i.p.) was administered by intraperitoneal injection at the interval of 3 times per week, until day 26 in each animal model. Tumor sizes were measured using calipers at designated days, and tumor volume was calculated using the formula: volume=width^2×length×0.52. The average body weight (BW) of the animals was measured daily, and the concentration of the test compound(s) (i.e., FCW393) in i.p. injection was adjusted proportionally to the BW respectively at the indicated dosage and time. After treatment, mice were sacrified and their white blood cells (WBC), red blood cells (RBC), platelets (PLT), hemoglobin (HGB), hematocrit (HCT), mean corpuscular volume (MCV), mean corpuscular hemoglobin (MCH), and mean corpuscular hemoglobin concentration (MCHC) were respectively determined; their weights of lymph nodes, thymus, and spleen were measured; as well as the levels of aspartate aminotransferase (AST), analine aminotransferase (ALT), albumin, triglyceride, blood urea nitrogen (BUN), creatinine, and uric acid were measured.\nIn this example, effects of FCW393 (or compound 16) on animals implanted with primary melanoma cells were investigated, in which the body weight; the size of the tumor; the respective weights of lymph nodes, thymus, and spleen; the respective functions of liver, kidney, and vascular system; as well as the levels of inflammation and/or stress markers were determined. Results are illustrated in FIGS. 8-15."}, "[6]": {"test_system": "metastatic melanoma (B16-F10/Luc cells)", "assay": "Metastatic melanoma-bearing C57BL mice", "format": "in vivo", "protocol": "as §6"}}}
{"smiles": "C[C@H](CCC(=O)NCCOCCOCCN=[N+]=[N-])C1CCC2C3CC[C@@H]4C[C@H](NC(=O)[C@H](CC(=O)O)Nc5ccc([N+](=O)[O-])c6nonc56)CC[C@]4(C)C3CC[C@@]21C", "note": "(stereo partly drawn) [Compound 17, (3S)-4-(((3R,5R,10S,13R)-17-((R)-5-((2-(2-(2-azidoethoxy)ethoxy)ethyl)amino)-5-oxopentan-2-yl)-10,13-dimethylhexadecahydro-1H-cyclopenta[a]phenanthren-3-yl)amino)-3-((7-nitrobenzo[c][1,2,5]oxadiazol-4-yl)amino)-4-oxobutanoic acid]", "values": [{"measurement": "cytotoxicity", "setting": "[1]", "value": "no significant cytotoxicity"}, {"measurement": "cytotoxicity", "setting": "[2]", "value": "no significant cytotoxicity"}, {"measurement": "invasion ability", "setting": "[3]", "value": "greatly suppressed"}, {"measurement": "migration ability", "setting": "[3]", "value": "greatly suppressed"}, {"measurement": "invasion ability", "setting": "[4]", "value": "greatly suppressed"}, {"measurement": "migration ability", "setting": "[4]", "value": "greatly suppressed"}, {"measurement": "melting point", "value": "90 to 91", "unit": "°C"}]}
{"smiles": "C[C@H](CCC(=O)OCCOCCOCCN=[N+]=[N-])C1CCC2C3CC[C@@H]4C[C@H](NC(=O)[C@H](CC(=O)O)Nc5ccc([N+](=O)[O-])c6nonc56)CC[C@]4(C)C3CC[C@@]21C", "note": "(stereo partly drawn) [Compound 16, (3S)-4-(((3R,5R,10S,13R)-17-((R)-5-(2-(2-(2-azidoethoxy)ethoxy)ethoxy)-5-oxopentan-2-yl)-10,13-dimethylhexadecahydro-1H-cyclopenta[a]phenanthren-3-yl)amino)-3-((7-nitrobenzo[c][1,2,5]oxadiazol-4-yl)amino)-4-oxobutanoic acid]", "values": [{"measurement": "body weights of the test animals", "setting": "[5]; 10 mg/Kg, i.p.", "value": "without significantly affecting"}, {"measurement": "tumor volume as compared with that of the control animal", "setting": "[5]; 10 mg/Kg, i.p., 3 times per week", "value": "about 1/3"}, {"measurement": "weight of lymph node, thymus, or spleen", "setting": "[5]; FIG. 9", "value": "no effects"}, {"measurement": "counts of white blood cells (WBC), increase", "setting": "[5]; FIG. 10, panel A", "value": 2, "unit": "fold"}, {"measurement": "levels of RBC, PLT, HGB, HCT, MCV, MCH and MCHC", "setting": "[5]; FIG. 10, panels B to H", "value": "no effects"}, {"measurement": "level of analine aminotransferase (ALT)", "setting": "[5]; FIG. 11", "value": "did not affect"}, {"measurement": "level of aspartate aminotransferase (AST)", "setting": "[5]; FIG. 11", "value": "reduce"}, {"measurement": "level of inflammation marker (albumin)", "setting": "[5]; FIG. 11, panel C", "value": "no effect"}, {"measurement": "level of the stress marker (uric acid)", "setting": "[5]; FIG. 11, panel G", "value": "slightly increased"}, {"measurement": "weight of lymph node, thymus, or spleen", "setting": "[6]; FIG. 13", "value": "did not affect"}, {"measurement": "levels of WBC, RBC, platelets, HGB, HCT, MCV, MCH, and MCHC", "setting": "[6]; FIG. 14", "value": "nor did it possess any significant effects"}, {"measurement": "level of inflammation marker or stress marker", "setting": "[6]; FIG. 15", "value": "did not affect"}, {"measurement": "growth of tumor (bioluminescence IVIS images)", "setting": "[6]; days 7 and 14, FIG. 12, panels A and B", "value": "suppress the growth of tumor"}, {"measurement": "melting point", "value": "80 to 81", "unit": "°C"}]}
